Laboratory results from patent US20240279190A1, “COMPOUNDS FOR MODULATING PLATELET-TYPE 12-(S)-LIPOXYGENASE AND METHODS OF USE FOR SAME” (The Regents of The University of California, priority 2021, published 2024).

Tests used:
[1] = target: T1, 12-LOX mutant A417I/V418M/S594T (Homo sapiens, UniProt P18054, A417I/S594T/V418M); assay: UV-Vis-based IC50 assay, A417I/V418M/S594T mutant; type: biochemical
T1 construct: 6xHis (N); made in house; pFastBac1 shuttle vector
T1 sequence (P18054 1-663 A417I/V418M/S594T): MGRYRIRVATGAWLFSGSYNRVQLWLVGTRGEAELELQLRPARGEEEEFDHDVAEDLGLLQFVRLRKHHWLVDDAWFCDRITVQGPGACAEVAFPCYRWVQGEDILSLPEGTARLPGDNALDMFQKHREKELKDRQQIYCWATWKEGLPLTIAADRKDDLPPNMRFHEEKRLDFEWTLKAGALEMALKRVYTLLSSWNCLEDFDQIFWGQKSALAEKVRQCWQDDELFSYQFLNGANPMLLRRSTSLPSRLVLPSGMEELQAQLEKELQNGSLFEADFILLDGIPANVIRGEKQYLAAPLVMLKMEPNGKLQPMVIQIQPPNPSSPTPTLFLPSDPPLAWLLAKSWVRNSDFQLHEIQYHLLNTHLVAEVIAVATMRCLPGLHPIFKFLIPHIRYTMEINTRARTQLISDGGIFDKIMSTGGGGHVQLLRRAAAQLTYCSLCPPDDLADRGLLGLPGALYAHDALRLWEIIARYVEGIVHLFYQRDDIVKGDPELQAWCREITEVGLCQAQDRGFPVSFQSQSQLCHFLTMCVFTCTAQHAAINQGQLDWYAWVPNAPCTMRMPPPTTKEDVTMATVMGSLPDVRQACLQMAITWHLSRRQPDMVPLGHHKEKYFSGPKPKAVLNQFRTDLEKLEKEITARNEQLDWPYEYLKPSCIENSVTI
Source text: Based on the ML355 binding mode predicted by the modeling, all residues within 5 Å of any atom of ML355 were selected for experimental mutagenesis. The selected residues were replaced with amino acids with either bulkier or smaller side chains in order to determine what specific interactions play a role in inhibitor binding. […] The numbering refers to the UniProt accession number P18054 sequence, with the N-terminal methionine assigned as amino acid number one. The primers for all mutants were designed using the online QuikChange Primer Design tool (http://www.genomics.agilent.com/primerDesignProgram.jsp) from Agilent Technologies (CA, USA). The mutations were introduced by using the QuikChange® II XL site-directed mutagenesis kit from Agilent, following the instructions in the protocol provided. […]
The wild type 12-LOX (wt-12-LOX) enzyme and its mutants were expressed as fusion proteins, with an N-terminal 6×His tag, and were affinity purified by nickel-iminodiacetic acid agarose using FPLC (Biorad).
The percent inhibition was determined by comparing the enzyme rates of the control (DMSO solvent) and the inhibitor sample by following the formation of the conjugated diene product at 234 nm (ε=25,000 M^−1cm^−1). […] The substrate concentration was quantitatively determined by allowing the enzymatic reaction to go to completion in the presence of soybean LOX-1. […]

[2] = tested on: other LOX isozymes (h5-LOX, h15-LOX-1, h15-LOX-2); assay: Inhibitor selectivity against other LOX isozymes; type: biochemical, human
Source text: The wild type 12-LOX (wt-12-LOX) enzyme and its mutants were expressed as fusion proteins, with an N-terminal 6×His tag, and were affinity purified by nickel-iminodiacetic acid agarose using FPLC (Biorad). For inhibitor selectivity, human 5-LOX (h5-LOX, UniProt entry P09917), human reticulocyte 15-LOX-1 (h15-LOX-1, UniProt entry P16050) and human epithelial 15-LOX-2 (h15-LOX-2, UniProt entry 015296) were also isolated. The purity of all the proteins, except h5-LOX, was greater than 90% as determined by SDS-PAGE analysis. h5-LOX was an ammonium sulfate fraction due to the extensive loss of activity upon purification.
IC50 values of ML355 against 12-LOX and its mutants were determined in a similar manner as the steady state kinetic values. The percent inhibition was determined by comparing the enzyme rates of the control (DMSO solvent) and the inhibitor sample by following the formation of the conjugated diene product at 234 nm (ε=25,000 M^−1cm^−1). The reactions were initiated by adding 200 nM 15-LOX-2, 30 nM 12-LOX, 40 nM 15-LOX-1, or approximately 100-300 nM (total protein) of 5-LOX ammonium sulfate fraction to a cuvette with 2 mL reaction buffer, constantly stirred using a magnetic stir bar at room temperature (22° C.). […] The substrate concentration was quantitatively determined by allowing the enzymatic reaction to go to completion in the presence of soybean LOX-1. […]

## COc1cccc(CNc2ccc(S(=O)(=O)Nc3nc4c(ccc5ccccc54)s3)cc2)c1O [Compound LOX-12-001, 4-((2-hydroxy-3-methoxybenzyl)amino)-N-(naphtho[1,2-d]thiazol-2-yl)benzenesulfonamide]
[1]
  IC50: > 20 µM
[1]; 20 uM inhibitor, read-out: Percent inhibition at 20 uM inhibitor
  inhibition at 20 µM: 44%
[2]
  selectivity against other LOX isozymes: maintained
